Measurements: patent US9718790B2, “Triazine derivative and pharmaceutical composition having an analgesic activity comprising the same” (SHIONOGI & CO., LTD., priority 2010, dated 2017)

Target: human P2X3 receptor (Homo sapiens (Human), UniProt P56373)
Test: Evaluation of human P2X3 receptor inhibitory activity (Fluo-3 calcium fluorescence, FDSS 3000, ATP stimulation);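 also: stimulus was 50 nM ATP with fluorescence followed for 3 min, and the response per well was peak post-ATP fluorescence divided by the reading at measurement start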
Assay type: cell-based
[1] = C6BU-1 cells stably expressing human P2X3 receptor
[2] = human P2X3 receptor, Test Example 1
[3] = C6BU-1 cells stably expressing human P2X3 receptor, Fluo-3 fluorescence, FDSS 3000

Chain of human P2X3 receptor (P56373 whole entry): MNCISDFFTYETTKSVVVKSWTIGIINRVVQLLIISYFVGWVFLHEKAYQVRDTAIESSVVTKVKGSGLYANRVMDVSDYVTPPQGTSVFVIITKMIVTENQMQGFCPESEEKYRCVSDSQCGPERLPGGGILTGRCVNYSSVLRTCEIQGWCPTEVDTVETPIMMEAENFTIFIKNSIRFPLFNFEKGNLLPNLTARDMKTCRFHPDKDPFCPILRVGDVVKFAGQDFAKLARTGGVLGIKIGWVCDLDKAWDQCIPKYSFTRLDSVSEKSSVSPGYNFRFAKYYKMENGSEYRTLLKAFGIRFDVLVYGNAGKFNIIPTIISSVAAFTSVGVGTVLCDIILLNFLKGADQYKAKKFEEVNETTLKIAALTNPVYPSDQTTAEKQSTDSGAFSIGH

Structure (SMILES) | IC50 [1] | IC50 [3] | also measured
CCn1c(=O)[nH]/c(=N\c2ccc(Oc3ccnc(C(=O)O)c3)cc2)n(CC2CCC3(CC2)CC3)c1=O [Compound I-2177] | 0.014 µM | – | –
CCCc1ccc(/N=c2\[nH]c(=O)n(C[C@H](C)C(=O)O)c(=O)n2Cc2ccc(C)cc2)cc1OC [Compound I-1365] | 0.094 µM | – | –
CC(C)Oc1ccc(/N=c2\[nH]c(=S)n(C(C)C)c(=O)n2Cc2ccc(Cl)cc2)cc1 [Compound I-2254, 1-(4-chlorobenzyl)-3-isopropyl-6-(4-isopropoxyphenylimino)-4-thioxo-1,3,5-triazinane-2-one] | – | – | IC50 [2]: 0.078 µM
COC(=O)Cn1c(=O)[nH]/c(=N\c2ccc3nc(C)sc3c2)n(Cc2ccc(Cl)cc2)c1=O [Compound I-1602] | – | 0.005 µM | –
Cn1c(=O)[nH]/c(=N\c2ccc(Oc3nccc(C(N)=O)n3)cc2)n(Cc2ccc(Cl)cc2)c1=O [Compound I-2380] | – | – | IC50 [2]: 0.029 µM
CC(C)Oc1ccc(/N=c2\[nH]c(OCC(=O)N(C)CCO)nc(=O)n2Cc2ccc(Cl)cc2)cc1F [Compound I-0586] | 0.611 µM | – | –
CCc1nc2ccc(/N=c3\[nH]c(=O)n(CCCC(=O)O)c(=O)n3Cc3ccc(C)cc3)cc2s1 [Compound I-1631] | – | 0.008 µM | –
COC(=O)[C@H](C)[C@H](C)n1c(=O)[nH]/c(=N\c2ccc(N3CCCCC3)cc2)n(Cc2ccc(C)cc2)c1=O [Compound I-1381] | 0.02 µM | – | –
CCn1c(=O)[nH]/c(=N\c2ccc(Oc3cncc(C(=O)OC)c3)cc2)n(CC2CCC3(CC2)CC3)c1=O [Compound I-2173] | 0.012 µM | – | –
O=C(O)c1cc(Oc2ccc(/N=c3\[nH]c(=O)n(CCO)c(=O)n3Cc3ccc(Cl)cc3)cc2)ccn1 [Compound I-1797] | – | 0.006 µM | –
NC(=O)c1ccc(Oc2ccc(/N=c3\[nH]c(=O)n(C[C@H](O)CO)c(=O)n3Cc3ccc(Cl)cc3)cc2)cc1 [Compound I-2546] | – | – | IC50 [2]: 0.006 µM
COC(=O)[C@@H](C)Cn1c(=O)[nH]/c(=N\c2ccc(N3CCCC3)cc2)n(Cc2ccc(C)cc2)c1=O [Compound I-1086] | – | 0.291 µM | –
Cc1ccc(Cn2c(=O)n(CCC(=O)O)c(=O)[nH]/c2=N\c2ccc3nc(C4CC4)sc3c2)cc1 [Compound I-1561] | – | 0.032 µM | –
CCCOc1ccc(/N=c2\[nH]c(=O)n(C[C@H](CC)C(=O)O)c(=O)n2Cc2ccc(Cl)cc2)cc1 [Compound I-0890] | – | – | IC50 [2]: 0.032 µM
Cc1ccc(Cn2c(=O)n(C[C@H](C)C(=O)O)c(=O)[nH]/c2=N\c2ccc(CC(C)C)nc2)cc1 [Compound I-1359] | 0.724 µM | – | –
CNC(=O)c1cc(Oc2ccc(/N=c3\[nH]c(=O)[nH]c(=O)n3Cc3ccc(Cl)cc3)cc2)ccn1 [Compound I-1846] | – | 0.015 µM | –

Structure (SMILES) | IC50 [1] | IC50 [3] | also measured
CCn1c(=O)[nH]/c(=N\c2ccc(Oc3ccc(C(N)=O)cc3)cc2)n(Cc2ccc(Cl)cc2)c1=O [Compound I-1870] | – | 0.004 µM | –
CCOC(=O)CCCn1c(=O)[nH]/c(=N\c2ccc(Oc3ccnc(C)c3)cc2)n(Cc2ccc(C)cc2)c1=O [Compound I-1397] | 0.003 µM | – | –
CC[C@H](C)COc1ccc(/N=c2\[nH]c(=O)n(C[C@H](C)C(=O)OC)c(=O)n2Cc2ccc(C)cc2)cc1 [Compound I-1045] | – | 0.159 µM | –
CC(C)n1ncc2cc(/N=c3\[nH]c(=O)n([C@@H](C)[C@@H](C)C(=O)O)c(=O)n3Cc3ccc(Cl)cc3)ccc21 [Compound I-1744] | – | 0.242 µM | –
Cc1ccc(Cn2c(=O)n(C[C@H](C)C(=O)O)c(=O)[nH]/c2=N\c2ccc(C3=CCCC3)cc2)cc1 [Compound I-1114] | – | 0.214 µM | –
CCOc1ccc(/N=c2\[nH]c(=O)n(CC3(C(=O)O)CC3)c(=O)n2Cc2ccc(Cl)cc2)cc1Cl [Compound I-0924] | – | 0.03 µM | –
C=Cc1cc(/N=c2\[nH]c(=O)n(CCC(=O)O)c(=O)n2Cc2ccc(C)cc2)ccc1OC(C)C [Compound I-1192] | 0.02 µM | – | –
COC(=O)[C@@H](C)Cn1c(=O)[nH]/c(=N\c2ccc(OC(F)F)cc2)n(Cc2ccc(Cl)cc2)c1=O [Compound I-1166] | – | 0.126 µM | –
Cn1c(=O)[nH]/c(=N\c2ccc(Oc3cccc(C#N)n3)cc2)n(Cc2ccc(Cl)cc2)c1=O [Compound I-2374] | – | – | IC50 [2]: 0.008 µM
Cn1c(=O)[nH]/c(=N\c2ccc(Oc3cccc(C(N)=O)n3)cc2)n(C[C@H]2CC[C@H](C)CC2)c1=O [Compound I-2463] | – | – | IC50 [2]: 0.003 µM
CCOc1ccc(/N=c2\[nH]c(=O)n([C@H](C)CC(=O)O)c(=O)n2Cc2ccc(C)cc2)cc1Cl [Compound I-0879] | – | – | IC50 [2]: 0.058 µM
CNC(=O)CCn1c(=O)[nH]/c(=N\c2ccc(Oc3ccc(O)nc3)cc2)n(Cc2ccc(Cl)cc2)c1=O [Compound I-1600] | – | 0.011 µM | –
CCn1c(=O)[nH]/c(=N\c2ccc(Oc3ccccc3C(=O)OC)cc2)n(Cc2ccc(Cl)cc2)c1=O [Compound I-1988] | 0.391 µM | – | –
CC(=O)OCC(CO)CCn1c(=O)[nH]/c(=N\c2ccc3nc(C)sc3c2)n(Cc2ccc(Cl)cc2)c1=O (stereo not shown) [Compound I-1851] | – | 0.004 µM | –
C[C@@H](Cn1c(=O)[nH]/c(=N\c2ccc(OC(F)F)c(F)c2)n(Cc2ccc(Cl)cc2)c1=O)C(=O)O [Compound I-0658] | 0.109 µM | – | –
